The source of these data is US9242981B2, “Fused pyrazole derivatives as novel ERK inhibitors” (Merck Sharp & Dohme Corp., priority 2010, dated 2016).

The target in the assay is Mouse ERK2 protein (Mus musculus (Mouse), UniProt P63085). Briefly: Coupled MEK1/ERK2 IMAP assay or Active ERK2 IMAP assay. Format: biochemical. The note with it: Table 1, class symbols, 30 μM ATP.
Sequence of Mouse ERK2 protein (P63085 whole entry): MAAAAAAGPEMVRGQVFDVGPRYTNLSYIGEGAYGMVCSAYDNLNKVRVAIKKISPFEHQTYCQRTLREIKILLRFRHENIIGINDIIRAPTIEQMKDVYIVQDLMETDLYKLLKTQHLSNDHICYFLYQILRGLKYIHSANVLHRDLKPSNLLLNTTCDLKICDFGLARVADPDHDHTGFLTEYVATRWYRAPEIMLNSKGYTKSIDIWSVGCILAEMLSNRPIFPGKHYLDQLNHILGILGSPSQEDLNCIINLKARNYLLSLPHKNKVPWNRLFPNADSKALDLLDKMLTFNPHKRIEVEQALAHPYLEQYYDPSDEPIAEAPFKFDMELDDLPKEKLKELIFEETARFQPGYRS

In the case of `COc1ccc(-c2n[nH]c3c2CN(C(=O)N[C@@H]2CCCN(Cc4c(F)cccc4F)C2)CC3)cn1` [Compound 132, N-[1-[(2,6-difluorophenyl)-methyl]-3(R)-piperidinyl]-1,4,6,7-tetrahydro-3-(6-Methoxy-3-pyridinyl)-5H-pyrazolo[4,3-c]pyridine-5-carboxamide], the IC50 fell in the range of 21 to 100 nM.
On to `Cn1cc2cc(-c3n[nH]c4c3CN(C(=O)N[C@@H]3CCCN(Cc5c(F)cccc5F)C3)CC4)ccc2n1` [Compound 133, N[1-[(2,6-difluorophenyl)-methyl]-3(R)-piperidinyl]-1,4,6,7-tetrahydro-3-(2-methyl-2H-indazol-5-yl)-5H-pyrazolo[4,3-c]pyridine-5-carboxamide], for which the IC50 lay in the range of 21 to 100 nM.
Then `Cn1ncc2cc(-c3n[nH]c4c3CN(C(=O)N[C@@H]3CCCN(Cc5c(F)cccc5F)C3)CC4)ccc21` [Compound 134, N-[1-[(2,6-difluorophenyl)-methyl]-3(R)-piperidinyl]-1,4,6,7-tetrahydro-3-(1-methyl-1H-indazol-5-yl)-5H-pyrazolo[4,3-c]pyridine-5-carboxamide], with 21 to 100 nM; and `COc1cccc(F)c1CN1CCC(F)C(NC(=O)N2CCc3[nH]nc(-c4ccnc(C)c4)c3C2)C1` (stereo not shown) [Compound 135, N-[4-fluoro-1-[(2-fluoro-6-methoxyphenyl)methyl]-3-piperidinyl]-1,4,6,7-tetrahydro-3-(2-methyl-4-pyridinyl)-5H-pyrazolo[4,3-c]pyridine-5-carboxamide], with less than 20 nM.
Then `O=C(N[C@@H]1CCCN(Cc2csc3ccccc23)C1)N1CCc2[nH]nc(-c3ccc(-c4ccccc4)nc3)c2C1` [Compound 136, N-[1-(benzo[b]thien-3-ylmethyl)-3(R)-piperidinyl]-1,4,6,7-tetrahydro-3-(6-phenyl-3-pyridinyl)-5H-pyrazolo[4,3-c]pyridine-5-carboxamide], with 101 to 1000 nM; and `O=C(N[C@@H]1CCCN(Cc2c(F)cccc2F)C1)N1CCc2[nH]nc(-c3ccc(-c4ccccc4)nc3)c2C1` [Compound 137, N-[1-[(2,6-difluorophenyl)-methyl]-3(R)-piperidinyl]-1,4,6,7-tetrahydro-3-(6-phenyl-3-pyridinyl)-5H-pyrazolo[4,3-c]pyridine-5-carboxamide], with 101 to 1000 nM; and `COc1cccc(F)c1CN1CCC[C@@H](NC(=O)N2CCc3[nH]nc(-c4ccc(-c5ccccc5)nc4)c3C2)C1` [Compound 138, N-[1-[(2-fluoro-6-methoxyphenyl)methyl]-3(R)-piperidinyl]-1,4,6,7-tetrahydro-3-(6-phenyl-3-pyridinyl)-5H-pyrazolo[4,3-c]pyridine-5-carboxamide], with 101 to 1000 nM.
On to `Cc1cccc(C)c1CN1CC[C@@H](NC(=O)N2CCc3[nH]nc(-c4ccc(-c5ccccc5)nc4)c3C2)C1` [Compound 139, N-[1-[(2,6-dimethylphenyl)-methyl]-3(R)-pyrrolidinyl]-1,4,6,7-tetrahydro-3-(6-phenyl-3-pyridinyl)-5H-pyrazolo[4,3-c]pyridine-5-carboxamide], for which the IC50 lay within 101 to 1000 nM.
Consider `Cn1ncc2cc(-c3n[nH]c4c3CN(C(=O)NC3CCC5CCC3N5Cc3ccccc3F)CC4)ccc21` (stereo not shown) [Compound 140, N-[8-[(2-fluorophenyl)methyl]-8-azabicyclo[3.2.1]oct-2-yl]-1,4,6,7-tetrahydro-3-(1-methyl-1H-indazol-5-yl)-5H-pyrazolo[4,3-c]pyridine-5-carboxamide], for which the IC50 is less than 20 nM.
In turn, `Cc1nc2cc(-c3n[nH]c4c3CN(C(=O)N[C@@H]3CCCN(Cc5cccc6cnccc56)C3)CC4)ccc2o1` [Compound 142, 1,4,6,7-tetrahydro-N-[1-(5-isoquinolinylmethyl)-3(R)-pipendinyl]-3-(2-methyl-5-benzoxazolyl)-5H-pyrazolo[4,3-c]pyridine-5-carboxamide] showed an IC50 of 101 to 1000 nM.

By IC50 is commonly meant the point on the concentration scale where inhibition reaches its midpoint. A low value points to higher potency.
